Tests used:
[1] = biological target: T1, AtPORB (Arabidopsis thaliana, UniProt P21218); experiment: […] K fluorescence emission shift of Pchlide; type: binding; details: 5 µM Pchlide, 15 µM enzyme, 200 µM NADP+, 100 µM OPT lipids, pH 7.1; inactive complex
T1 construct: gene PORB; cloned in a previous study
T1 sequence (P21218 67-401): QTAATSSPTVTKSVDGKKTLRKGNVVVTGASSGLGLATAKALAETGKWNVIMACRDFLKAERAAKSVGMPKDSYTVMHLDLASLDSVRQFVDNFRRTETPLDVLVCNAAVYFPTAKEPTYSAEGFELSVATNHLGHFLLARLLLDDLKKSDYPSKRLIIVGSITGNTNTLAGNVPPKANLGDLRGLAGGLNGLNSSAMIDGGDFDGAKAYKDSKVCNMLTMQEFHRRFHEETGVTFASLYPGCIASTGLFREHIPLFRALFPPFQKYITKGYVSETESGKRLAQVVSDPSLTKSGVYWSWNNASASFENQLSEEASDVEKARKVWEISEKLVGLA

[2] = biological target: T2, SynPOR (Synechocystis sp. PCC 6803, UniProt Q59987); experiment: […] K fluorescence emission shift of Pchlide; type: binding; details: 5 µM Pchlide, 15 µM enzyme, 200 µM dinucleotide, no lipids, pH 7.1
T2 construct: gene por; recombinant, E. coli BL21(DE3)pRIL, cloned in a previous study; tag not described here
T2 sequence (Q59987 whole entry): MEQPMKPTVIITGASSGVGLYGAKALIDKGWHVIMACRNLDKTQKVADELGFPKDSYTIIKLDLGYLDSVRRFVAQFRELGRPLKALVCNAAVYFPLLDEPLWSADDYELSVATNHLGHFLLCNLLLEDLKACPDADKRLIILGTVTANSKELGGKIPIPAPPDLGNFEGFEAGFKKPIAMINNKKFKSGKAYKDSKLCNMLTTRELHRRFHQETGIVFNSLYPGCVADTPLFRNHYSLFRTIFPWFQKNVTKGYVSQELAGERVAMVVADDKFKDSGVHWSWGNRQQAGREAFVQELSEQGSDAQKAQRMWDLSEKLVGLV

[3] = system: T3, AtPORB_α10; experiment: […] K fluorescence, Chlide/Pchlide ratio after […] s illumination, modified Michaelis-Menten fit; type: biochemical, Arabidopsis thaliana; details: 5 µM Pchlide, 15 µM enzyme, no lipids, pH 7.1, room temperature; apparent analogue of Km
T3 construct: gene PORB; AtPORB with helix alpha10 of SynPOR; pET15b, E. coli

Row | SMILES | 77 K fluorescence emission shift of Pchlide [1] | 77 K fluorescence emission shift of Pchlide [2] | Km [3]
1 | NC(=O)c1ccc[n+]([C@@H]2O[C@H](COP(=O)(O)OP(=O)(O)OC[C@H]3O[C@@H](n4cnc5c(N)ncnc54)[C@H](OP(=O)(O)O)[C@@H]3O)[C@@H](O)[C@H]2O)c1 [NADP+] | AtPORB:Pchlide can bind NADP^+ in the presence of OPT lipids | Introduction of NADP^+ into the lipid-free mixture induced further red shift | 
2 | NC(=O)C1=CN([C@@H]2O[C@H](COP(=O)(O)OP(=O)(O)OC[C@H]3O[C@@H](n4cnc5c(N)ncnc54)[C@H](OP(=O)(O)O)[C@@H]3O)[C@@H](O)[C@H]2O)C=CC1 [NADPH] |  |  | 22.6 ± 3.3 µM
